{
  "source": "patent US20250270159A1",
  "about": "“1-(CYCLOBUTANEMETHYLIDENE)-2, 4, 5-TRIMETHOXYBENZENE COMPOUND AND PREPARATION METHOD AND USE THEREOF” (CHENGDU XINRUI TAIKANG TECHNOLOGY CO., LTD., priority 2023, published 2025)",
  "key": {"[1]": {"system": "rat model of lithium-pilocarpine-induced epilepsy", "test": "Rat model of lithium-pilocarpine-induced epilepsy (SE), highest seizure grade score", "type": "in vivo, Sprague Dawley (SD) rats", "settings": "50 mg/kg intraperitoneal, 1 h after SE onset; acute phase; Racine 0-6", "description": "(1) Experimental Animals: SPF Adult Male Sprague Dawley (SD) Rats, with a Weight of 200-250 g.\nMethylscopolamine bromide, lithium chloride, and pilocarpine were weighed, and experimental drugs were dissolved to working concentrations (100 mg/mL of lithium chloride solution, 1 mg/mLof methylscopolamine bromide solution, and 20 mg/mL of pilocarpine solution) with 0.9% saline. Rats were injected intraperitoneally with lithium chloride (a dose of 127 mg/kg), and 18-20 h later, scopolamine methylbromide (a dose of 1 mg/kg) was injected intraperitoneally. […] Thereafter, an additional dose of 10 mg/kg pilocarpine was injected intraperitoneally every 30 min until the onset of a grade IV or higher status epilepticus (SE)-like seizure without significant intermittent intervals, with a maximum dose of 60 mg/kg.\nModel inclusion criterion: experimental animals presenting continuous seizures of grade IV or higher for 1 h was judged as successful modeling.\nThe rats with successful modeling were randomly divided into three groups, namely a model group, a CTMB group, and a sodium valproate (VPA) group. […]\nReferring to the grading scale of Racine scores, the seizure symptoms of each group of rats after the drug intervention were observed, and the seizure grades of each group of rats in the acute phase were recorded. […]"}, "[2]": {"system": "blood-brain barrier permeability, traumatic brain injury (TBI) rats", "test": "Blood-brain barrier permeability test (Evans blue) in TBI rats", "type": "in vivo, SD rats", "settings": "30 mg/kg ip 2 h after TBI; 24 h after administration; FIG. 2", "description": "The experimental grouping and drug administration plan were as follows. • Sham operation group (Group P): saline was given with the same volume as in the CTMB group; • Model group (T group): a blank emulsion was given with the same volume as in the CTMB group; • Medium dose group (Group M): a dose of 30 mg/kg of CTMB emulsion injection was given.\nAfter 2 h of traumatic brain injury (TBI) modeling, the rats in each group were administered with intraperitoneal injection. After 24 h of the administration, 4% Evans blue solution (2.5 mL/kg) was injected into the right tail vein of the rats, and after 1 h, the rats were deeply anesthetized. The rats were perfused with 100 mL of saline through the heart, the brains were rapidly severed and removed and were immediately divided into the left hemisphere, the right hemisphere, the cerebellum, and the brain stem. The brain tissues were weighed to wet weight, soaked in 10 times volume of pure formamide, incubated at 60° C. for 48 h, and centrifuged at 25° C. and 10000 rpm/min for 30 min. The supernatant was aspirated to detect the Evans blue dye by UV spectrophotometry at 622 nm and a standard curve was plotted for quantification, and the final results were shown as Evans blue content per gram of brain tissue (μg/g)."}, "[3]": {"system": "hemorrhagic stroke induced by caudate nucleus collagenase VII injection in rats", "test": "Acute phase of hemorrhagic stroke induced by caudate nucleus collagenase VII injection, short-term neurological deficit score", "type": "in vivo", "settings": "for mNSS score / Garcia score: 24 h after hemorrhagic stroke modeling; for mNSS score: scale 0-18, higher worse; for Garcia score: scale 3-18, lower worse", "description": "after 2 h of hemorrhagic stroke, Zea Longa Score was used to determine whether the modeling was successful, and rats with successful modeling were taken and randomly grouped to be administered.\nThe rats were randomly divided into a sham operation group (Sham group, given a blank emulsion with a volume equal to that of the high-dose CTMB group), a model group (Vehicle group, given a blank emulsion with a volume equal to that of the high-dose CTMB group), a low-dose CTMB group (CTMB-L group, 10 mg/kg), a high-dose CTMB group (CTMB-H group, 20 mg/kg), and an edaravone dexborneol injection concentrated solution group (EDB group, commercially available, 3 mg/kg). Each group included 10-13 rats, which were administered by intraperitoneal injection. It should be noted that in the experiment, the mode of administration for rats was intraperitoneal injection, and a ratio of the effective dose of CTMB, the active ingredient in the emulsion injection, to the unit mass of the human body was within a range of 0.2 mg-4.0 mg/kg, which referred to the ratio of the effective dose of CTMB, the active ingredient in the emulsion injection, to the unit mass of the human body during intravenous infusion, which was extrapolated from effective dose of the rats. Considering the different bioavailability, peak concentration, and peak time of the drug due to different species and different modes of administration, the ration of the effective dose of the active ingredient CTMB in the emulsion injection to unit mass of human body was finally determined to be 0.2 mg-4.0 mg/kg through conversion.\nThe rats were fasted and dehydrated for 8 h before the procedure, and anesthesia was induced using 4% isoflurane, and 2% isoflurane was given to maintain anesthesia, and the rats were maintained at a temperature of about 37° C. The rats were fixed at the prone position on the stereotaxic apparatus, the head was prepared for skinning, and a longitudinal incision was made in the median sagittal shape of the head to incise the skin and subcutaneous tissues, exposing the anterior chimney and coronal suture. The stereotaxic apparatus was used to locate the right caudate nucleus of the rat with the fontanel as the origin and the right paracentral opening of the midline of 3.0 mm, marked and then holes were punched with the cranial bone drill, the dura was exposed, and the hemorrhage was stopped adequately. The micro-syringe was pre-mounted on the stereotaxic apparatus, and the needle was vertically injected 5.5 mm along the cranial borehole (i.e., the caudate nucleus site). Collagenase VII (1 μL) at a concentration of 0.5 U/μL was injected slowly and uniformly into the brain for 5 min, the needle was stopped for 8 min, and the syringe was slowly pushed out. The cranial defect was closed using sterile bone wax and the scalp incision was sutured. After disinfecting the treatment with iodophor, the rats were returned to the cage. The sham operation group (Sham group) remained unchanged except for the insertion of a needle for saline injection. After awaking from anesthesia, the rats were fed normally. […]\nThe neural function of the rats was comprehensively evaluated after 24 h of modeling using the modified mNSS score and Garcia score, and mNSS scoring criteria was shown in Table 3 and Garcia scoring criteria was shown in Table 4. […]"}},
  "data": [
    {"smiles": "COc1cc(OC)c(OC)cc1C=C1CCC1", "note": "[CTMB, 1-(cyclobutylidenemethyl)-2,4,5-trimethoxybenzene]", "values": [
      {"measurement": "Seizure grade score (highest, SE model rats)", "setting": "[1]", "result": "4.38 ± 0.52"},
      {"measurement": "Evans blue exudation (content per gram of brain tissue)", "setting": "[2]", "result": "significantly reduces Evans blue exudation"},
      {"measurement": "toxic side effects associated with administration", "setting": "[3]; 10 and 20 mg/kg ip, hemorrhagic stroke rats", "result": "No toxic side effects"},
      {"measurement": "mNSS score", "setting": "[3]; CTMB-H 20 mg/kg ip", "result": "5.97 ± 1.68^####, *"},
      {"measurement": "Garcia score", "setting": "[3]; CTMB-H 20 mg/kg ip", "result": "10.45 ± 2.49^####, *"},
      {"measurement": "mNSS score", "setting": "[3]; CTMB-L 10 mg/kg ip", "result": "4.54 ± 1.81^###, ****"},
      {"measurement": "Garcia score", "setting": "[3]; CTMB-L 10 mg/kg ip", "result": "12.45 ± 1.89^####, ****"}
    ]}
  ]
}
